# Experimental data as given in patent publication US20230271950A1, “ANTIBACTERIAL PICOLINAMIDE COMPOUNDS” (University of Notre Dame Du Lac, priority 2020, published 2023).
# Like-named read-outs stand apart in the source and are kept apart here.
# Columns and labels:
# Lactobacillus gasseri = assay: MIC against gut bacterium Lactobacillus gasseri; format: cell-based
# MRSA (NRS70, NRS119) = assay: MIC against MRSA strains; format: cell-based, Staphylococcus aureus; details: Staphylococcus aureus, read-out: MIC
# Bifidobacterium longum = assay: MIC against gut bacterium Bifidobacterium longum; format: cell-based; details: Bifidobacterium longum, Bifidobacterium longum strain HM-846, read-out: MIC
# Lactobacillus reuteri = assay: MIC against gut bacterium Lactobacillus reuteri; format: cell-based
# Fusobacterium nucleatum = assay: MIC against gut bacterium Fusobacterium nucleatum; format: cell-based; details: Fusobacterium nucleatum, Fusobacterium nucleatum strain HM-992, read-out: MIC
# C. difficile = assay: MIC by broth microdilution against C. difficile strains; format: cell-based, Clostridioides difficile; details: Clostridioides difficile, read-out: MIC
smiles,measurement,setting,value
"Cc1ncc([N+](=O)[O-])n1CCO [MTZ, metronidazole, reference compound]",MIC,"Lactobacillus gasseri; Lactobacillus gasseri strain HM-644, Table 7",>32 µg/mL
same,MIC,"Lactobacillus gasseri; Lactobacillus gasseri, Lactobacillus gasser strain HM-644, Table 1, read-out: MIC",> 32 µg/mL
same,MIC,"MRSA (NRS70, NRS119); MRSA NRS70, Table 1",> 128 µg/mL
same,MIC,"MRSA (NRS70, NRS119); MRSA NRS70, Table 7",> 128 µg/mL
same,MIC,"MRSA (NRS70, NRS119); MRSA NRS119, Table 1",> 128 µg/mL
same,MIC,Bifidobacterium longum; Table 1,0.5 µg/mL
same,MIC,Bifidobacterium longum; Table 7,1 µg/mL
same,MIC,"Lactobacillus reuteri; Lactobacillus reuteri strain HM-102, Table 7",>32 µg/mL
same,MIC,"Lactobacillus reuteri; Limosilactobacillus reuteri, Lactobacillus reuter strain HM-102, Table 1, read-out: MIC",> 32 µg/mL
same,MIC,Fusobacterium nucleatum; Table 1,2 µg/mL
same,MIC,Fusobacterium nucleatum; Table 7,2 µg/mL
same,MIC,"C. difficile; ATCC43255, C. difficile ATCC43255 (TcdA+, TcdB+), Table 1",0.25 µg/mL
same,MIC,"C. difficile; ATCC43255, C. difficile ATCC43255, Table 7",0.25 µg/mL
same,MIC,"C. difficile; ATCC43255, C. difficile ATCC43255, Table 9",0.25 µg/mL
same,MIC,"C. difficile; BAA1803, C. difficile BAA-1803, Table 7",0.5 µg/mL
same,MIC,"C. difficile; BAA1803, C. difficile BAA-1803, Table 9",0.5 µg/mL
same,MIC,"C. difficile; BAA1804, C. difficile BAA-1804, Table 7",0.25 µg/mL
same,MIC,"C. difficile; BAA1804, C. difficile BAA-1804, Table 9",0.25 µg/mL
same,MIC,"C. difficile; BAA1812, C. difficile BAA-1812, Table 7",0.25 µg/mL
same,MIC,"C. difficile; BAA1812, C. difficile BAA-1812, Table 9",0.25 µg/mL
same,MIC,"C. difficile; BAA1814, C. difficile BAA-1814, Table 7",0.25 µg/mL
same,MIC,"C. difficile; BAA1814, C. difficile BAA-1814, Table 9",0.25 µg/mL
same,MIC,"C. difficile; BAA1870, C. difficile BAA-1870 (NAP1, ribotype 27), Table 1",0.5 µg/mL
same,MIC,"C. difficile; BAA1870, C. difficile BAA-1870, Table 7",0.5 µg/mL
same,MIC,"C. difficile; BAA1870, C. difficile BAA-1870, Table 9",0.5 µg/mL
same,MIC,"C. difficile; C. difficile 23691 (VR, vancomycin-resistant), Table 7",0.5 µg/mL
same,MIC,"C. difficile; C. difficile 23691, clinical isolate resistant to VAN, Table 1",0.5 µg/mL
same,MIC,"C. difficile; C. difficile 23691, Table 9",0.5 µg/mL
same,MIC,"C. difficile; C. difficile 23828 (FR, fidaxomicin-resistant), Table 7",0.5 µg/mL
same,MIC,"C. difficile; C. difficile 23828, clinical isolate resistant to FDX, Table 1",0.5 µg/mL
same,MIC,"C. difficile; C. difficile 23828, Table 9",0.5 µg/mL
same,MIC,"C. difficile; C. difficile 24531 (VR, vancomycin-resistant), Table 7",0.5 µg/mL
same,MIC,"C. difficile; C. difficile 24531, Table 9",0.5 µg/mL
same,MIC,"C. difficile; C. difficile 24923 (VR, vancomycin-resistant), Table 7",0.25 µg/mL
same,MIC,"C. difficile; C. difficile 24923, Table 9",0.25 µg/mL
same,MIC,"C. difficile; C. difficile 26675 (MR, metronidazole-resistant), Table 7",4 µg/mL
same,MIC,"C. difficile; C. difficile 26675, clinical isolate resistant to MTZ, Table 1",4 µg/mL
same,MIC,"C. difficile; C. difficile 26675, Table 9",4 µg/mL
same,MIC,"C. difficile; C. difficile 27081 (FR, fidaxomicin-resistant), Table 7",0.5 µg/mL
same,MIC,"C. difficile; C. difficile 27081, Table 9",0.5 µg/mL
same,MIC,"C. difficile; C. difficile 27173 (MR, metronidazole-resistant), Table 7",4 µg/mL
same,MIC,"C. difficile; C. difficile 27173, Table 9",4 µg/mL
same,MIC,"C. difficile; C. difficile HM-88, Table 9",0.25 µg/mL
same,MIC,"C. difficile; C. difficile HM-89, Table 9",0.25 µg/mL
same,MIC,"C. difficile; C. difficile HM-745, Table 9",0.5 µg/mL
same,MIC,"C. difficile; C. difficile HM-746, Table 9",0.25 µg/mL
same,MIC,"C. difficile; C. difficile HM-747, Table 9",0.5 µg/mL
same,MIC,"C. difficile; C. difficile NR49292, Table 7",0.25 µg/mL
same,MIC,"C. difficile; C. difficile NR49292, Table 9",0.25 µg/mL
same,MIC,"C. difficile; C. difficile NR49294, Table 7",0.25 µg/mL
same,MIC,"C. difficile; C. difficile NR49294, Table 9",0.25 µg/mL
same,MIC,"C. difficile; C. difficile NR49305, Table 7",0.25 µg/mL
same,MIC,"C. difficile; C. difficile NR49305, Table 9",0.25 µg/mL
same,MIC,"C. difficile; C. difficile NR49318, Table 7",0.25 µg/mL
same,MIC,"C. difficile; C. difficile NR49318, Table 9",0.25 µg/mL
same,MIC,"C. difficile; C. difficile NR-13427, Table 9",1 µg/mL
same,MIC,"C. difficile; C. difficile NR-13428, Table 9",1 µg/mL
same,MIC,"C. difficile; C. difficile NR-13429, Table 9",1 µg/mL
same,MIC,"C. difficile; C. difficile NR-13430, Table 9",0.5 µg/mL
same,MIC,"C. difficile; C. difficile NR-13431, Table 9",0.5 µg/mL
same,MIC,"C. difficile; C. difficile NR-13433, Table 9",0.5 µg/mL
same,MIC,"C. difficile; C. difficile NR-13434, Table 9",0.5 µg/mL
same,MIC,"C. difficile; C. difficile NR-13435, Table 9",0.5 µg/mL
same,MIC,"C. difficile; C. difficile NR-13436, Table 9",0.5 µg/mL
same,MIC,"C. difficile; C. difficile NR-13437, Table 9",0.5 µg/mL
same,MIC,"C. difficile; C. difficile NR-13438, Table 9",0.5 µg/mL
same,MIC,"C. difficile; C. difficile NR-13553, Table 9",0.5 µg/mL
same,MIC,"C. difficile; C. difficile NR-32882, Table 9",0.25 µg/mL
same,MIC,"C. difficile; C. difficile NR-32883, Table 9",0.5 µg/mL
same,MIC,"C. difficile; C. difficile NR-32884, Table 9",0.5 µg/mL
same,MIC,"C. difficile; C. difficile NR-32885, Table 9",0.5 µg/mL
